According to US20230398125A1, “TREATING HEPATITIS” (Albireo AB, priority 2022, published 2023):
Where a name gives a salt, the structure may show the parent alone. Read-outs that look alike come from different tables or passages of the source.

Assays:
HBV (clinical isolate) = experiment: HBV infection of cryopreserved human hepatocytes (Compound 2); type: cell-based; conditions: Hepatitis B virus, Hepatocyte
Procedure: (§1) NTCP and the related BA transporter apical sodium-dependent BA transporter (ASBT) from human were expressed in cell lines. Inhibition by Compound 2 was studied using [^3]taurocholate as substrate. Cryopreserved human hepatocytes infected with a clinical isolate of HBV were used for infection experiments. Two female non-human primates (NHPs) were dosed with Compound 2 via oral gavage at dose levels of Compound 2 ranging between 3-30 mg/kg once daily for 5 days. Total serum, urine, and fecal BAs were analyzed enzymatically and Compound 2 plasma concentrations were assessed via liquid chromatography-tandem mass spectrometry. The oral pharmacokinetics of Compound 2 was also studied in mice, rats, and dogs.

Human NTCP = target: T1, Human NTCP (Homo sapiens, UniProt Q14973); experiment: [3H]taurocholate uptake in cell lines expressing human NTCP (Compound 2); type: cell-based
T1 construct: expressed in transfected cells; peptide purchased from Pharmaron
T1 sequence (Q14973 1-349): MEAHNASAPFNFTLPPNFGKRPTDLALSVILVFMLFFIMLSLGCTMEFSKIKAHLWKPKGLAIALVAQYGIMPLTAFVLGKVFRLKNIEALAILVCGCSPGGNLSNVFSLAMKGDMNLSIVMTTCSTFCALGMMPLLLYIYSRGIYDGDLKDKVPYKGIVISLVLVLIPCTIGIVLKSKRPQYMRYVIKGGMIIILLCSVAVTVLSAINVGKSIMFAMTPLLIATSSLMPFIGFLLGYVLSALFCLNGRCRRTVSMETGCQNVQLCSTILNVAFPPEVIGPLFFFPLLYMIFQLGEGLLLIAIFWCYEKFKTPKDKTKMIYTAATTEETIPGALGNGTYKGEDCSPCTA
Procedure: as §1

human hepatocytes = experiment: Cell viability of human hepatocytes (Compound 2); type: cell-based
[1] = Oral pharmacokinetics of Compound 2 in mice, rats and dogs; type: in vivo; conditions: across all species
Procedure: as §1

[2] = Plasma concentrations of Compound 2 in non-human primates; type: in vivo; conditions: NHPs, 3-30 mg/kg oral once daily for 5 days
Procedure: as §1

ASBT = target: T2, ASBT (Homo sapiens, UniProt Q12908); experiment: [3H]taurocholate uptake in cell lines expressing human ASBT (Compound 2); type: cell-based
T2 construct: expressed in transfected cells
T2 sequence (Q12908 1-348): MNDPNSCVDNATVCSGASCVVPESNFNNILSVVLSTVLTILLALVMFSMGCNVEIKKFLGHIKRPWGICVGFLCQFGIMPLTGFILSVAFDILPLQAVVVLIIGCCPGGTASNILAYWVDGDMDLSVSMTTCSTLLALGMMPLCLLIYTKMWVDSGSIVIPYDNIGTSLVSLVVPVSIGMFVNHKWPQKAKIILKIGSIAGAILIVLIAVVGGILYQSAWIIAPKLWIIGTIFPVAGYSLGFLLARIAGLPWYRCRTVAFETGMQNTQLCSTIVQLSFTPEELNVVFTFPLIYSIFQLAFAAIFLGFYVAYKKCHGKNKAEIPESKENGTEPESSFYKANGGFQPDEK
Procedure: as §1

[3] = Serum, urine and fecal bile acids and C4 in non-human primates after oral dosing; type: in vivo; conditions: NHPs
Procedure: as §1

[4] = XTT cell toxicity in primary human hepatocytes; type: cell-based; conditions: human, primary human hepatocytes, read-out: TC50
Procedure: Multiplicity of Infection (MOI) is defined as the number of HBV genome equivalents, as determined by the qPCR quantitation, added per cell in the respective growth format. The overnight media was removed from the cells and replaced with 190 μL of new, serum-free HI media/4% PEG8000 and 10 μL of the diluted virus stock (HepG2 AD38 genotype D) for a MOI of 500. Medium alone was added to the cells containing compound for the parallel cytotoxicity evaluation. After 18 hours of virus infection, the cells were gently washed five times with DPBS, followed by a new addition of 200 μL HI media containing compounds on day 1, day 4 and day 7 post-infection. In one set of experiments (Study #01), the effect of giving compound 18 h prior to infection, versus 18 h post-infection was studied. The supernatant removed from the cytotoxicity plates at each medium change was stored at −20° C. for shipment to the client. The supernatant was collected at 10 days post infection and stored at −20° C. for total extracellular HBV DNA copy number to be quantitatively determined by qPCR. Cell viability was measured by XTT tetrazolium dye at day 10 for the cytotoxicity plates.
Following incubation at 37° C. in a 5% CO2 incubator for ten days, the test plates were stained with the tetrazolium dye XTT (2,3-bis(2-methoxy-4-nitro-5-sulfophenyl}-5-[(phenylamino)carbonyl]-2H-tetrazolium hydroxide). XTT-tetrazolium was metabolized by the mitochondrial enzymes of metabolically active cells to a soluble formazan product. XTT solution was prepared daily as a stock of 1 mg/mL in RPMI1640. Phenazine methosulfate (PMS) solution was prepared at 0.15 mg/mL in PBS and stored in the dark at −20° C.
XTT/PMS stock was prepared immediately before use by adding 40 μL of PMS per mL of XTT solution. Fifty microliters of XTT/PMS were added to each well of the plate and the plate was re-incubated for 4 hours at 37° C. Plates were sealed with adhesive plate sealers and shaken gently or inverted several times to mix the soluble formazan product and the plate was read spectrophotometrically at 450/650 nm with a Molecular Devices Vmax plate reader.
Each concentration of inhibitor and controls were analyzed in triplicate for HBV DNA copies and for cellular toxicity, respectively. From control wells without inhibitor, the mean of these three replicates was calculated and the HBV DNA mean was set to 100% viral control and the XTT mean was set to 100% cell viability. The effect of compound was then expressed as % of viral control and % cell viability, respectively.

[5] = test system: HBV (HepG2 AD38 genotype D); experiment: HBV infection of primary human hepatocytes, extracellular HBV DNA by qPCR; type: cell-based, hepatitis B virus; conditions: for EC50: Hepatitis B virus, read-out: EC50

CCCCC1CN(c2ccc(F)cc2)c2cc(SC)c(OCC(C)(C)C(=O)O)cc2S(=O)(=O)N1C (stereo not drawn) [Compound 2, 3-((3-butyl-5-(4-fluorophenyl)-2-methyl-7-(methylthio)-1,1-dioxido-2,3,4,5-tetrahydro-1,2,5-benzothiadiazepin-8-yl)oxy)-2,2-dimethylpropanoic acid]
IC50 (HBV (clinical isolate)): 13.5 nM
IC50 (Human NTCP): 3.4 nM
effect on cell viability (human hepatocytes): without affecting cell viability
oral bioavailability [1]: Good oral bioavailability
plasma exposure versus dose [2]: increased with dose
IC50 (ASBT): 193 nM
levels of fecal BAs [3]: did not change
urine excretion of BAs compared with vehicle [3]: tended to increase
serum BAs at 24 hours post-dose ([3]; 10 mg/kg): returned to baseline
serum BAs at 24 hours post-dose ([3]; 30 mg/kg): still being elevated
duration of increases in serum BAs ([3]; 10 and 30 mg/kg, Day 1 and Day 5): at least 8 hours
levels of 7-alpha-hydroxy-4-cholesten-3-one (C4) ([3]; after 5 days of repeated dosing): did not change
serum BAs ([3]; oral dosing, Day 1 and Day 5): increased in a dose-dependent manner

CC(C)OC(=O)OCOP(=O)(CO[C@H](C)Cn1cnc2c(N)ncnc21)OCOC(=O)OC(C)C [Tenofovir disoproxil fumarate, reference compound]
CC50 at 10 days ([4]; Study #01, 18 h post-infection section): > 1000 nM
CC50 at 10 days ([4]; Study #01, XTT, PHH): > 1000 nM
CC50 at 10 days ([4]; Study #02): > 100 nM
CC50 at 10 days ([4]; Study #03): > 100 nM
EC50 ([5]; HepG2, 18 h, Study #01, compound given 18 h post-infection): 20 nM
EC50 ([5]; HepG2, Study #01, compound given 18 h prior to infection, PHH, HBV DNA): 43 nM
EC50 ([5]; HepG2, Study #02, PHH): 64 nM
EC50 ([5]; HepG2, Study #03, PHH): 59 nM
antiviral activity/potency when given 18 h post-infection ([5]; Study #01): maintained
Max inhibition ([5]; Study #01, 18 h post-infection): 97%
Max inhibition ([5]; Study #01, 18 h prior to infection): 96%
Max inhibition ([5]; Study #02): 68%
Max inhibition ([5]; Study #03): 61%
Max inhibition ([5]; Study #03, listed as tenofovir): ~60%
